According to patent EP4741392A1, “1H-PYRAZOLO[4,3-C]PYRIDINE COMPOUND, AND COMPOSITION THEREOF AND USE THEREOF” (Shenzhen TargetRx Co., Ltd., priority 2023, dated 2025):
Read-outs that look alike come from different tables or passages of the source.

Assays:
BTK kinase = molecular target: T1, BTK kinase (Homo sapiens, UniProt Q06187); test: Kinase activity inhibition assay (HTRF TK Kit); type: biochemical
T1 construct: purchased Invitrogen PV3587
Summary of the method: (§1)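 HTRF TK-substrate phosphorylation assay, set up on ice, then the kinase reaction ran at room temperature in 1% DMSO. Detection used streptavidin-XL665 plus TK antibody-cryptate for 1 h at RT, and the 665/620 nm ratio was read. IC50s came from a four-parameter nonlinear fit of % inhibition against log concentration.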

BTK T474I = molecular target: T2, BTK T474I (Homo sapiens, UniProt Q06187, T474I); test: Kinase activity inhibition assay (HTRF TK Kit); type: biochemical
T2 construct: purchased SignalChem B10-12HH
Summary of the method: as §1

BTK C481S = molecular target: T3, BTK C481S (Homo sapiens, UniProt Q06187, C481S); test: Kinase activity inhibition assay (HTRF TK Kit); type: biochemical
T3 construct: purchased Carna 08-547
Summary of the method: as §1

NIH/3T3 BTK C481S cells = test: Phosphor-BTK(Y223) assay, adherent cells; type: cell-based; conditions: read-out: NIH/3T3 BTK-C481S pBTK
Summary of the method: (§2)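 NIH/3T3 cells expressing WT or C481S BTK were pretreated with compound for 0.5 h at 37 °C, then stimulated with 1 mM Na3VO4 (final) for 2 h. Lysates were assayed by HTRF for p-BTK Y223 using the 665/620 nm ratio. IC50 was obtained by nonlinear fit of % inhibition versus 0.5% DMSO control.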

NIH/3T3 BTK WT cells = test: Phosphor-BTK(Y223) assay, adherent cells; type: cell-based; conditions: read-out: NIH/3T3 BTK-WT pBTK
Summary of the method: as §2

[1] = Mus musculus, NIH3T3, phosphorylated BTK Y223, NIH/3T3 BTK C481S cells
[2] = Mus musculus, NIH3T3, phosphorylated BTK Y223, NIH/3T3 BTK WT cells

T2 sequence (Q06187 whole entry T474I): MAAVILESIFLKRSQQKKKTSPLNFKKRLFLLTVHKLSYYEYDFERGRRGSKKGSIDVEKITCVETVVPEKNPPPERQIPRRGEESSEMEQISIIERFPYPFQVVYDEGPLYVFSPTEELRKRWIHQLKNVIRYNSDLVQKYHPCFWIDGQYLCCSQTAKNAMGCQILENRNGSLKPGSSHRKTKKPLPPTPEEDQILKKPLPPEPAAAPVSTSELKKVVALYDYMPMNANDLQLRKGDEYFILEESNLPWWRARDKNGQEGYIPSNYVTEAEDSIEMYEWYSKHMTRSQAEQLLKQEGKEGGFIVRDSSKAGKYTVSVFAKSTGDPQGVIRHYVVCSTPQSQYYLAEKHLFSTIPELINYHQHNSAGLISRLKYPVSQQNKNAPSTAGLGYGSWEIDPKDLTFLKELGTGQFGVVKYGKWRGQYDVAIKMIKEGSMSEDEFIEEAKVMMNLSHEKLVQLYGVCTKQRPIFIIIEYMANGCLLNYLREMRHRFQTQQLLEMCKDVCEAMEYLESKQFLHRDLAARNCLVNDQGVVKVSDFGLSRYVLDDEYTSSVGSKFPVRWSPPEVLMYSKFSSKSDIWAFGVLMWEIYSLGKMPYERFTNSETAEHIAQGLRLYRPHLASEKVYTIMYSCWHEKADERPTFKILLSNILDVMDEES
T1 sequence (Q06187 whole entry): as the sequence (Q06187 whole entry T474I) above, with I474T counted along it
T3 sequence (Q06187 whole entry C481S): as the sequence (Q06187 whole entry T474I) above, with I474T, C481S counted along it

Row | Compound | IC50 (BTK kinase) [nM] | IC50 (BTK T474I) [nM] | IC50 (BTK C481S) [nM] | IC50 (NIH/3T3 BTK C481S cells; [1]) [nM] | IC50 (NIH/3T3 BTK WT cells; [2]) [nM] | IC50 (NIH/3T3 BTK C481S cells; phosphorylated BTK Y223, NIH/3T3 BTK C481S cells) [nM] | IC50 (NIH/3T3 BTK WT cells; phosphorylated BTK Y223, NIH/3T3 BTK WT cells) [nM]
1 | COc1ccc(F)cc1C(=O)NCc1ccc(-c2nc(C3CCSCC3)cc3[nH]nc(N)c23)cc1 [Example 91, N-(4-(3-amino-6-(tetrahydro-2H-thiopyran-4-yl)-1H-pyrazolo[4,3-c]pyridin-4-yl)benzyl)-5-fluoro-2-methoxybenzamide] | 1 to 5 | 50 to 500 | 1 to 5 | 5 to 10 | ≤ 5 | – | –
2 | COc1ccc(F)cc1C(=O)NCc1ccc(-c2ncc(-c3ccc4c(n3)nc3n4CCOC3)c3[nH]nc(N)c23)cc1 [Example 102, N-(4-(3-amino-7-(6,7-dihydro-9H-pyrido[2',3':4,5]imidazo[2,1-c][1,4]oxazin-2-yl)-1H-pyrazolo[4,3-c]pyridin-4-yl)benzyl)-5-fluoro-2-methoxybenzamide] | 5 to 50 | > 500 | 5 to 50 | 10 to 50 | 10 to 50 | – | –
3 | COc1ccc(F)cc1C(=O)NCc1ccc(-c2ncc(-c3ccc4c(n3)nc3n4C(C)COC3)c3[nH]nc(N)c23)cc1 (stereo not shown) [Example 103, N-(4-(3-amino-7-(6-methyl-6,7-dihydro-9H-pyrido[2',3':4,5]imidazo[2,1-c][1,4]oxazin-2-yl)-1H-pyrazolo[4,3-c]pyridin-4-yl)benzyl)-5-fluoro-2-methoxybenzamide] | 5 to 50 | 50 to 500 | 5 to 50 | 10 to 50 | 5 to 10 | – | –
4 | COc1ccc(F)cc1C(=O)NCc1ccc(-c2ncc(-c3cccnc3)c3[nH]nc(N)c23)cc1 [Example 105, N-(4-(3-amino-7-(pyridin-3-yl)-1H-pyrazolo[4,3-c]pyridin-4-yl)benzyl)-5-fluoro-2-methoxybenzamide] | 5 to 50 | > 500 | 50 to 500 | > 50 | > 50 | – | –
5 | COc1ccc(F)cc1C(=O)NCc1ccc(-c2ncc(-c3ccncc3)c3[nH]nc(N)c23)cc1 [Example 106, N-(4-(3-amino-7-(pyridin-4-yl)-1H-pyrazolo[4,3-c]pyridin-4-yl)benzyl)-5-fluoro-2-methoxybenzamide] | 50 to 500 | > 500 | 50 to 500 | > 50 | > 50 | – | –
6 | COc1ccc(F)cc1C(=O)NCc1ccc(-c2nc([C@H]3CC[C@H](CO)CC3)cc3[nH]nc(N)c23)cc1 [Example 117, N-(4-(3-amino-6-((1r,4r)-4-(hydroxymethyl)cyclohexyl)-1H-pyrazolo[4,3-c]pyridin-4-yl)benzyl)-5-fluoro-2-methoxybenzamide] | 1 to 5 | 50 to 500 | 1 to 5 | 10 to 50 | 10 to 50 | – | –
7 | N-(4-(3-amino-7-(1-(difluoromethyl)-1H-pyrazol-3-yl)-1H-pyrazolo[4,3-c]pyridin-4-yl)benzyl)-5-fluoro-2-methoxybenzamide [Example 29] | ≤ 1 | 5 to 50 | ≤ 1 | – | – | 5 to 10 | ≤ 5

Further lines, with some results ahead:

Row | IC50 (BTK kinase) [nM] | IC50 (BTK T474I) [nM] | IC50 (BTK C481S) [nM] | Compound | IC50 (NIH/3T3 BTK C481S cells; [1]) [nM] | IC50 (NIH/3T3 BTK WT cells; [2]) [nM] | IC50 (NIH/3T3 BTK C481S cells; phosphorylated BTK Y223, NIH/3T3 BTK C481S cells) [nM] | IC50 (NIH/3T3 BTK WT cells; phosphorylated BTK Y223, NIH/3T3 BTK WT cells) [nM]
8 | 1 to 5 | 50 to 500 | 1 to 5 | COc1ccc(F)cc1C(=O)NCc1ccc(-c2nc(C(F)F)c(-c3ncccn3)c3[nH]nc(N)c23)cc1 [Example 85, N-(4-(3-amino-6-(difluoromethyl)-7-(pyrimidin-2-yl)-1H-pyrazolo[4,3-c]pyridin-4-yl)benzyl)-5-fluoro-2-methoxybenzamide] | 5 to 10 | ≤ 5 | – | –
9 | 1 to 5 | 5 to 50 | 1 to 5 | C=CC(=O)N1CCCC(c2cc3[nH]nc(N)c3c(-c3ccc(CNC(=O)c4cc(F)ccc4OC)cc3)n2)C1 (stereo not shown) [Example 96, N-(4-(6-(1-acryloylpiperidin-3-yl)-3-amino-1H-pyrazolo[4,3-c]pyridin-4-yl)benzyl)-5-fluoro-2-methoxybenzamide] | > 50 | 10 to 50 | – | –
10 | 1 to 5 | 50 to 500 | 1 to 5 | COc1ccc(F)cc1C(=O)NCc1ccc(-c2ncc(-c3nccn4nccc34)c3[nH]nc(N)c23)cc1 [Example 98, N-(4-(3-amino-7-(pyrazolo[1,5-a]pyrazin-4-yl)-1H-pyrazolo[4,3-c]pyridin-4-yl)benzyl)-5-fluoro-2-methoxybenzamide] | ≤ 5 | ≤ 5 | – | –
11 | 5 to 50 | 50 to 500 | 5 to 50 | COc1ccc(F)cc1C(=O)NCc1ccc(-c2ncc(-c3nc4ccccc4s3)c3[nH]nc(N)c23)cc1 [Example 99, N-(4-(3-amino-7-(benzo[d]thiazol-2-yl)-1H-pyrazolo[4,3-c]pyridin-4-yl)benzyl)-5-fluoro-2-methoxybenzamide] | 5 to 10 | ≤ 5 | – | –
12 | 1 to 5 | 50 to 500 | 1 to 5 | COc1ccc(F)cc1C(=O)NCc1ccc(-c2ncc(-c3nc4cccnc4s3)c3[nH]nc(N)c23)cc1 [Example 100, N-(4-(3-amino-7-(thiazolo[5,4-b]pyridin-2-yl)-1H-pyrazolo[4,3-c]pyridin-4-yl)benzyl)-5-fluoro-2-methoxybenzamide] | 5 to 10 | ≤ 5 | – | –
13 | 1 to 5 | 5 to 50 | 1 to 5 | CCN1CCc2nc(-c3cnc(-c4ccc(CNC(=O)c5cc(F)ccc5OC)cc4)c4c(N)n[nH]c34)sc2C1 [Example 101, N-(4-(3-amino-7-(5-ethyl-4,5,6,7-tetrahydrothiazolo[5,4-c]pyridin-2-yl)-1H-pyrazolo[4,3-c]pyridin-4-yl)benzyl)-5-fluoro-2-methoxybenzamide] | ≤ 5 | ≤ 5 | – | –
14 | 5 to 50 | 50 to 500 | 1 to 5 | COc1ccc(F)cc1C(=O)NCc1ccc(-c2nc(C3CCOCC3)cc3[nH]nc(N)c23)cc1 [Example 115, N-(4-(3-amino-6-(tetrahydro-2H-pyran-4-yl)-1H-pyrazolo[4,3-c]pyridin-4-yl)benzyl)-5-fluoro-2-methoxybenzamide] | 5 to 10 | ≤ 5 | – | –
